According to patent US5017618A, “Labile derivatives of ketone analogs of 3-substituted-1-alkylamino-2-propanols and their use as beta-adrenergic blockers” (priority 1989, dated 1991):

Legend:
[1] = test system: rabbit iris-ciliary body; assay: Reduction of ketone in the iris-ciliary body; type: in vivo; settings: 0.5% hydrochloride salt (w/v); 1.0 hour after instillation
Experimental: It was then shown that reduction of 1-(isopropylamino)-3-(1-naphthyloxy)-2-propanone takes place in the iris-ciliary body. The compound was administered to the rabbit eye in propylene glycol/ethanol/pH=5.9 ophthalmic buffer (25:25:50 mixture, v/v) solution (concentration 0.5% hydrochloride salt, w/v). The iris-ciliary body was removed, extracted and analyzed 1.0 hour after the instillation of the compound, as described in the preceding paragraph.

[2] = test system: isoprenaline-induced tachycardia; assay: Effect on isoprenaline-induced tachycardia in rats (β-adrenergic antagonist activity); type: in vivo, rat (male Sprague-Dawley); settings: rats; 6 mg/kg i.v.; isoprenaline 50 μg/kg s.c.; FIG. 1
Experimental: (§1) Groups of seven male Sprague-Dawley rats weighing 150-250 g were used. Each animal was anesthetized with sodium pentobarbital (50 mg/kg) and the jugular vein was cannulated with PE50 tubing. This cannula was subcutaneously threaded around the neck and exteriorized dorsally. The cannula was filled with heparin solution ([…]) and sealed with a solid 22-gauge stylet. Animals were housed in individual stainless steel cages and at least 24 hours were allowed for recovery from the surgery. Food and water were provided ad libitum. On the day of the experiment, the heart rate of each rat was monitored with a plethsmograph and the data recorded on a Physioscribe II recorder. One hour was allowed as an equilibration period before any drugs were administered. Drugs were dissolved in normal saline as 0.3% solution and were administered intravenously at a dose of 6 mg/kg. The resting heart rate was then recorded after 1, 3, 5, 10 and 15 minutes following i.v. injection. […] A control group of seven animals was intravenously administered saline solution and was treated exactly in the same manner as the drug-treated groups. The significance of the difference between the effect of saline solution and the drugs under investigation on the resting heart rate and on isoprenaline tachycardia was analyzed using the student's "t" test. Values are given as mean ±S.E. of the mean. […] (.) carteolol HCl, 1c; .circle. propranolone ketoxime HCl, 6a; (.gradient.) timolone ketoxime oxalate, 6b; (Δ) N-isopropyl timolone ketoxime HCl, 6d; carteolone oxime HCl, 6c; and (---) saline solution. […] Drugs were administered to groups of 5 rats using a stomach tube and the heart rate was recorded for 1 hour. […] A control group of 5 rats was treated exactly in the same manner after the oral administration of the appropriate volume of saline solution.

[3] = test system: rabbit cornea (intraocular enzymes); type: in vivo; settings: rabbit, in vivo
Experimental: The tissue was homogenized in an alkaline buffer (pH 10.0) to give 10% (w/v) homogenate, and extracted twice with equal volumes of methylene chloride/diethyl ether mixture (1:4, v/v) by shaking for 15 minutes. The organic layer was separated, then re-extractedwith an equal volume of aqueous 0.1M hydrochloric acid solution. The aqueous phase was made alkaline (pH 10.0) and extracted with methylene chloride/diethyl ether, the organic layer was transferred to a deactivated glass vial, and the solvent was evaporated at reduced pressure under nitrogen stream. The residue was dissolved in 0.01M hydrochloric acid solution and analyzed by high-performance liquid chromatography (HPLC). A Supelcosil LC-8-DB analytical column (7.5 cm×4.6 mm i.d., 3 μm particle size) and mobile phase (1.5 mL/min flow rate) consisting of 30% acetonitrile in an aqueous buffer solution of 0.02M monobasic potassium phosphate (adjusted to pH 3.0 with phosphoric acid) and 0.01 (v/v) triethylamine. UV detection at 280 nm was applied. […] The same experiment was carried out by administering 1-(isopropylamino)-3-(2-allylphenoxy)-2-propanone oxime hydrochloride salt in 2% (w/v) aqueous solution. […]

[4] = test system: IOP of rabbits, treated eye; assay: Unilateral administration, IOP of rabbits; type: in vivo, rabbit; settings: 0.5% and 1.0% solution in saline, one eye
Experimental: (§2) The animals were kept in individual cages with free access to food and water. Intraocular pressure was measured using a Digilab model 30R pneumatonometer. The pneumatonometer readings were checked at least twice a day using the Digilab calibration verifier. All measurements were obtained from unrestrained, unanesthetized rabbits. One drop of 0.5% propacaine (Ophthetic-Allergen Pharmaceuticals, Inc.) diluted 1:2 with saline was instilled in each eye immediately prior to IOP measurement. Drugs were administered as 1 or 2.5% solution in buffer pH 7.4 or in saline in both eyes of a group of at least four rabbits. Another group of at least three rabbits served as control and was administered the carrier only. IOP was recorded after 30 and 60 minutes and then after 2, 3, 4, 6 and 8 hours following the drug or carrier administration. Values are given as means ± standard error (S.E.) of the mean. The significance of the change was determined using the student's t-test.
The unilateral administration of propranolol oxime hydrochloride 6a was subsequently studied at two different concentrations, 0.5% and 1.0%. Drugs were administered as 0.5% or 1.0% solution in saline in one of the eyes of each animal in a group of five rabbits. The untreated eye of each rabbit served as a control and received vehicle only. IOP was recorded as described above. […]

[5] = test system: Intraocular Pressure (IOP) of Rabbits; assay: Effect on the Intraocular Pressure (IOP) of Rabbits; type: in vivo, rabbit (male New Zealand albino)
Experimental: as §2, with “IOP was recorded after 30 and 60 minutes and then after 2, 3, 4, 6 and 8 hours following the drug or carrier administration.” left out

[6] = test system: resting heart rate of rats; assay: Effect on resting heart rate in rats; type: in vivo, rat (male Sprague-Dawley); settings: 6 mg/kg i.v. (Example 6)
Experimental: as §1

[7] = test system: rabbit eyes; assay: Local action of the drugs on the eyes (irritation, congestion, redness, lacrimation); type: in vivo, rabbit (male New Zealand albino); settings: for ocular irritation: 1% and 2.5%, both eyes, rabbits
[8] = test system: ocular tissues of rabbits; assay: In vivo distribution-metabolism in ocular tissues of rabbits; settings: for Concentration of propranolol: after topical propranolol.HCl 1a 1%
Experimental: (§3) Adult male New Zealand albino rabbits weighing 2.5-3.5 kg were used. Standard doses of 100 μl of 1% solution of the drugs in saline solution were administered topically to both eyes of each rabbit. After appropriate time intervals (30, 60 and 120 minutes), the animals were sacrificed. Aqueous humor was obtained by making a single puncture at the limbus using a 25 g×5/8" needle attached to 1 cm^3 syringe. Then the cornea and the iris-ciliary body were isolated. The tissues were pooled and homogenized using a Tekmar SDT tissuemizer in ice cold perchloric acid (0.05M) which contained 0.05% sodium metabisulfite as antioxidant. Samples were then rehomogenized in CH3 OH to prepare 10% homogenates, transferred to micro-filters and centrifuged for 20 minutes at 10000 r/minute to precipitate proteins. Aqueous humor was analyzed as such without any further dilution. Aliquots of 5-20 μl of the 10% tissue homogenate samples were analyzed by HPLC.

[9] = as above; settings: rabbit, topical or ocular, 1 %
Experimental: as §3

[10] = in vivo
Experimental: A group of seven adult male Sprague-Dawley rats weighing 150-250 g was used. […] After 1, 3, 5, 20, 40 and 60 minutes, one mL of blood was withdrawn from the jugular vein and dropped immediately into a tared tube containing 1 mL of ice-cold acetonitrile. The tubes were vigorously shaken, centrifuged, decanted and analyzed for propranolol 1a and propranolone oxime 5a by HPLC. Quantitation was done by using a calibration curve obtained by addition of known amounts of propranolol oxime HCl 6a to blood obtained from a control rat pretreated with saline solution.
A high pressure liquid chromatography (HPLC) method was developed for the assay of the β-blockers and their ketoxime analogs in biological fluids. […] An ASI reverse phase chrompack C18 column, operated at ambient temperature, was used for all separation. The mobile phase used for separation of propranolol 1a and propranolone oxime 5a consisted of water (90 mL), 1-heptanesulfonic acid (1g), 0.1M acetic acid (10 mL), 0.1M triethanolamine (100 mL) and methanol (799 mL).

[11] = Spontaneous isomerization of HCl salts of oximes (I'); type: physicochemical; settings: HCl salts in solution
Text: Spontaneous isomerization of HCl salts of compounds of formula (I') was also observed in solution; it was not observed in oxalates or bases of (I'). […] Acid-catalyzed isomerization was in most cases found to result in formation of the opposite isomers in solutions and in suspensions, respectively. In suspension, clearly the less soluble isomer is forming.

[12] = aqueous humor, Concentration of propranolol
[13] = aqueous humor, Tissue concentration
[14] = cornea, Concentration of propranolol
[15] = iris-ciliary body, Tissue concentration

SMILES: CC(C)NCC(=O)COc1cccc2ccccc12 [1-(isopropylamino)-3-(1-naphthyloxy)-2-propanone]
- enzymatic reduction product in iris-ciliary body [1]: The enzymatic reduction product, 1-(isopropylamino)-3-(1-naphthyloxy)-2-propanol, i.e. propranolol, was clearly identified

SMILES: CC(C)NCC(COc1cccc2ccccc12)=NO.Cl [Propranolone oxime HCl 6a, 1-(Isopropylamino)-3-(1-naphthyloxy)-2-propanone oxime hydrochloride]
- β-adrenergic antagonist activity against isoprenaline-tachycardia [2]: most effective
- metabolites identified in cornea [3]: Peaks were identified as the E- and Z-isomers of the ketoxime administered, as the corresponding ketone 1-(isopropylamino)-3-(naphthyloxy)-2-propanone, and as the β-adrenergic antagonist 1-(isopropylamino)-3-(naphthyloxy)-2-propanol(propranol)
- decrease in IOP, unilateral administration [4]: Significant decrease in the IOP was observed at both levels, only in the treated eye
- % change after treatment (IOP) ([5]; 1% solution, 30 min.): -3.23%
- IOP, treated ([5]; 1% solution, 30 min.): 26.9 ± 0.58 mm/Hg
- % change after treatment (IOP) ([5]; 1% solution, 60 min.): -11.51%
- IOP, treated ([5]; 1% solution, 60 min.): 24.0 ± 0.60 mm/Hg
- % change after treatment (IOP) ([5]; 1% solution, 2 hrs.): -15.82%
- IOP, treated ([5]; 1% solution, 2 hrs.): 23.4 ± 0.51 mm/Hg
- % change after treatment (IOP) ([5]; 1% solution, 3 hrs.): -16.18%
- IOP, treated ([5]; 1% solution, 3 hrs.): 23.3 ± 0.35 mm/Hg
- % change after treatment (IOP) ([5]; 1% solution, 4 hrs.): -20.14%
- IOP, treated ([5]; 1% solution, 4 hrs.): 22.2 ± 0.42 mm/Hg
- % change after treatment (IOP) ([5]; 1% solution, 6 hrs.): -7.08%
- IOP, treated ([5]; 1% solution, 6 hrs.): 25.8 ± 0.56 mm/Hg
- % change after treatment (IOP) ([5]; 1% solution, 8 hrs.): +0.50%
- IOP, treated ([5]; 1% solution, 8 hrs.): 27.9 ± 0.62 mm/Hg
- % change after treatment (IOP) ([5]; 1% solution, time zero): 0.00%
- IOP, treated ([5]; 1% solution, time zero): 27.8 ± 0.62 mm/Hg
- % change after treatment (IOP) ([5]; 2.5% solution, 30 min.): +1.92%
- IOP, treated ([5]; 2.5% solution, 30 min.): 26.5 ± 0.63 mm/Hg
- % change after treatment (IOP) ([5]; 2.5% solution, 60 min.): -10.00%
- IOP, treated ([5]; 2.5% solution, 60 min.): 23.4 ± 0.55 mm/Hg
- % change after treatment (IOP) ([5]; 2.5% solution, 2 hrs.): -13.08%
- IOP, treated ([5]; 2.5% solution, 2 hrs.): 22.6 ± 0.43 mm/Hg
- % change after treatment (IOP) ([5]; 2.5% solution, 3 hrs.): -18.46%
- IOP, treated ([5]; 2.5% solution, 3 hrs.): 21.2 ± 0.28 mm/Hg
- IOP, treated ([5]; 2.5% solution, 4 hrs.): 20.4 ± 0.34 mm/Hg
- % change after treatment (IOP) ([5]; 2.5% solution, 6 hrs.): -9.23%
- IOP, treated ([5]; 2.5% solution, 6 hrs.): 23.6 ± 0.48 mm/Hg
- % change after treatment (IOP) ([5]; 2.5% solution, 8 hrs.): -0.77%
- IOP, treated ([5]; 2.5% solution, 8 hrs.): 25.8 ± 0.65 mm/Hg
- % change after treatment (IOP) ([5]; 2.5% solution, time zero): 0.00%
- IOP, treated ([5]; 2.5% solution, time zero): 26.0 ± 0.48 mm/Hg
- ocular hypotensive activity compared with parent β-blocker ([5]; same dose levels, rabbits): much more pronounced and prolonged than that of propranolol itself
- ocular hypotensive activity (in words) ([5]; topical, rabbits, dose levels used): has shown the highest activity at both tested concentration levels, 1 and 2.5%
- activity on resting heart rate (negative chronotropic action) [6]: highest activity
- irritant action, unilateral administration ([7]; 0.5% and 1.0% solution in saline, one eye): No irritant action was noted
- ocular irritation [7]: completely devoid of the ocular irritation

SMILES: CC(C)NCC(O)COc1cccc2ccccc12 (stereo not shown) [Propranolol 1a, 1-(isopropylamino)-3-(1-naphthyloxy)-2-propanol]
- Concentration of propranolol ([8]; aqueous humor, 120 min.): 0.00 ± 0.00 mcg/g tissue
- Concentration of propranolol ([8]; cornea, 120 min.): 0.00 ± 0.00 mcg/g tissue
- Concentration of propranolol ([8]; iris-ciliary body, 60 min.): 0.00 ± 0.00 mcg/g tissue
- Concentration of propranolol ([8]; iris-ciliary body, 120 min.): 0.00 ± 0.00 mcg/g tissue
- Tissue concentration ([8]; after topical propranolone oxime HCl 6a 1%, aqueous humor, 120 min.): 0.00 ± 0.00 mcg/g tissue
- detection of propranolol in eye compartments ([8]; rabbit, in vivo): could be detected in measurable concentrations in the different eye compartments for the first two hours
- detection of propranolol in eye tissues ([8]; rabbit, in vivo): could not be detected in any of the tested eye tissues
- detection of propranolol in iris-ciliary body ([8]; rabbit, in vivo): completely disappeared from the iris-ciliary body
- concentration at 0.5 h [9, 12]: 1280 ± 190 ng/g
- concentration at 1 h [9, 12]: 260 ± 80 ng/g
- concentration at 0.5 h [9, 13]: 40 ± 20 ng/g
- concentration at 1 h [9, 13]: 710 ± 110 ng/g
- concentration at 0.5 h [9, 14]: 47100 ± 5570 ng/g
- concentration at 1 h [9, 14]: 14500 ± 2970 ng/g
- concentration at 0.5 h ([9]; cornea, Tissue concentration): 1680 ± 750 ng/g
- concentration at 1 h ([9]; cornea, Tissue concentration): 1140 ± 290 ng/g
- concentration at 2 h ([9]; cornea, Tissue concentration): 1140 ± 220 ng/g
- concentration at 0.5 h ([9]; iris-ciliary body, Concentration of propranolol): 8050 ± 1470 ng/g
- concentration at 0.5 h [9, 15]: 2110 ± 290 ng/g
- concentration at 1 h [9, 15]: 1790 ± 200 ng/g
- concentration at 2 h [9, 15]: 430 ± 110 ng/g
- ocular irritation [7]: ocular irritation which always accompanied propranolol administration at both dose levels
- detection of propranolol in rat's blood [10]: not detected in rat's blood

SMILES: Cc1ccc(Cl)c(OCC(CNC(C)(C)C)=NO)c1 [Il]
- spontaneous isomerization [11]: no isomerization of Il was observed
